The record followed here is patent US7105564B1, “Pharmaceutical composition comprising a dual antagonist against PGD2/TXA2 receptors having a [2.2.1] or [3.1.1] bicyclic skeleton” (Shionogi & Co., Ltd., priority 1999, dated 2006).

Assay [1] deals with T1, PGD2 receptor (Homo sapiens, UniProt Q13258).
T1 sequence (Q13258 1-359): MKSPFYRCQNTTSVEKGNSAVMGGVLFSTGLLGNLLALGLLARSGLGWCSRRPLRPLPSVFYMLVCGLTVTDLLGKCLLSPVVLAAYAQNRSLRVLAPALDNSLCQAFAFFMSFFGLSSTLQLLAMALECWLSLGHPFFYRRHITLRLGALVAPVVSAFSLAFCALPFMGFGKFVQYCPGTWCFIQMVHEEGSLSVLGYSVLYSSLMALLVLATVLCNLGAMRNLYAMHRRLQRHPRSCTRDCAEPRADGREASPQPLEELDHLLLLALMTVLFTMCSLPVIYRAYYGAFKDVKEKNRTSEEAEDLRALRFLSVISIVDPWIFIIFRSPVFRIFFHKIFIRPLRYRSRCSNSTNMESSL
The assay is described as follows: Antagonistic activity against PGD2 receptor using human platelet (inhibition of cAMP increase caused by PGD2). Type of assay: cell-based. The protocol: Experiment 3 Evaluation of Antagonistic Activity Against PGD2 Receptor Using Human Platelet
Peripheral blood was collected from a healthy volunteer using a syringe in which 1/9 volume of a citric acid/dextrose solution was previously added. The sample was subjected to centrifugation at 180 g for 10 min to obtain the supernatant (PRP: platelet rich plasma). The resultant PRP was washed 3 times with a washing buffer and the number of platelets was counted with a micro cell counter. A suspension adjusted to contain the platelets at a final concentration of 5×10^8/ml was warmed at 37° C., then subjected to the pre-treatment with 3-isobutyl-1-methylxanthine (0.5 mM) for 5 min. To the suspension was added a test compound diluted at various concentration, and 10 minutes later, 0.1 μM PGD2 was added to induce the reaction 2 minutes later, hydrochloric acid was added to terminate the reaction. The platelet was destroyed with an ultrasonic homogenizer. After centrifugation, the cAMP in the supernatant was determined by radioimmunoassay. PGD2 receptor antagonism of a drug was evaluated as follows: the inhibition rate regarding cAMP increased by the addition of PGD2 was determined at each concentration, and the concentration of the drug required for 50% inhibition (IC50) was calculated.

For assay [2], the target named is T1, PGD2 receptor. The assay is described as follows: Binding activity to PGD2 receptor in human platelet membrane fraction ([3H]PGD2). Also noted: The platelets were homogenized using a homogenizer (Ultra-Turrax) followed by centrifugation 3 times at 20,000 rpm; from tissue; host or cells: human platelet membrane fraction from blood of healthy volunteers. The method, then: Experiment 1 Binding activity to PGD2 Receptor
(§1) (1) Preparation of Human Platelet Membrane Fraction
Blood was collected using a plastic syringe containing 3.8% sodium citrate from the vein of healthy volunteers (adult male and female), then put into a plastic test tube and mixed by slow-reversion. The sample was then centrifuged at 1800 rpm, for 10 min at room temperature, and the supernatant containing PRP (platelet-rich plasma) was collected. The PRP was recentrifuged at 2300 rpm, for 22 min at room temperature to obtain platelets. The platelets were homogenized using a homogenizer (Ultra-Turrax) followed by centrifugation 3 times at 20,000 rpm, 10 min at 4° C.. to obtain a platelet membrane fraction. After protein determination, the membrane fraction was adjusted to 2 mg/ml and preserved in a refrigerator at −80° C.. until using for the binding test.
(2) Binding to PGD2 Receptor
To a binding-reaction solution (50 mM Tris/HCl, pH 7.4, 5 mM MgCl2) (0.2 ml) were added the human platelet membrane fraction (0.1 mg) and 5 nM [^3H]PGD2 (115 Ci/mmol), and the mixture was reacted at 4° C. for 90 min. After the reaction, the mixture was filtered through a glass fiber filter paper and washed several times with cooled physiological saline, then the radioactivity retained on the filter paper was measured. The specific-binding ratio was calculated by subtracting the non-specific binding ratio which is the radioactivity similarly measured in the presence of 10 μM PGD2 from the total binding.

A further assay deals with T2, TXA2 receptor (Homo sapiens, UniProt P21731).
T2 construct: The human platelet membrane fraction was prepared in accordance with Experiment 1 (1); from tissue; host or cells: human platelet membrane fraction from blood of healthy volunteers
T2 sequence (P21731 1-343): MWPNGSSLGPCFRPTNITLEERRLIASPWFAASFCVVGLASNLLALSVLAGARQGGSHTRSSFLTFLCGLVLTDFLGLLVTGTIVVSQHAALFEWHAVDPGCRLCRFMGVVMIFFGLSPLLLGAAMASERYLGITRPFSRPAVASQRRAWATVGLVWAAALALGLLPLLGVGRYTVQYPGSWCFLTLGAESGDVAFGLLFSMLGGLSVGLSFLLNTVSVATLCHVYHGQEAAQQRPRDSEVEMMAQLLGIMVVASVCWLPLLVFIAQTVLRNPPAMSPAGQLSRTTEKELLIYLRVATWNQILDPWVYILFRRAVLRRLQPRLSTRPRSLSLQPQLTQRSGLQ
The assay is described as follows: Binding activity to TXA2 receptor in human platelet membrane fraction ([3H](+)-S-145 sodium salt). The protocol:
Experiment 2 Binding activity to TXA2 Receptor
as §1
The human platelet membrane fraction was prepared in accordance with Experiment 1 (1).
(2) Binding to TXA2 Receptor
To a binding-reaction solution (50 mM Tris/HCl, pH 7.4, 10 mM MgCl2) (0.2 ml) were added the human platelet membrane fraction (0.05 mg) and 2 nM Sodium [^3H](+)-(5Z)-7- [3-endo- [(phenylsulfonyl)amino]bicyclo[2.2.1]hept-2-exo-yl]heptenoate (Japanese Patent Publication (Kokoku) No.79060/1993, hereinafter referred to as (+)—S—145 sodium salt) (26.4 Ci/mmol), and the mixture was reacted at room temperature for 90 min. After the reaction, the resultant mixture was filtered through a glass fiber filter paper and washed several times with cooled physiological saline, then the radioactivity retained on the filter paper was measured. The specific-binding ratio was calculated by subtracting the non-specific binding ratio (the radio activity similarly determined in the presence of 10 μM (+)—S—145 sodium salt) from the total binding.

Where [3] appears, read: 0.1 μM PGD2, read-out: Inhibitory activity for the increase of cAMP caused by PGD2 in human platelet IC50.
[4] abbreviates: 5 nM [3H]PGD2, 4° C., 90 min, read-out: Binding activity to PGD2 receptor in human platelet membrane fraction IC50.
Setting [5] is: 2 nM [3H](+)-S-145 sodium salt, room temperature, 90 min, read-out: Binding activity to TXA2 receptor in human platelet membrane fraction IC50.

Like-named read-outs stand apart in the source and are kept apart here.

One may read the IC50 as the concentration that gives 50% inhibition. Turning to `O=C(O)CCCC=CCC1C2CCC(C2)C1NC(=O)c1ccc(Sc2ccsc2)s1` (stereo not drawn) [Compound I-79], the IC50 turned out to be 24 nM on PGD2 receptor [1] (setting [3]), 0.42 nM on PGD2 receptor [2] (setting [4]) and 15 nM at TXA2 receptor (setting [5]).
Turning to `O=C(O)CCCC=CCC1C2CCC(C2)C1NC(=O)c1ccc(S(=O)(=O)c2ccsc2)s1` (stereo not drawn) [Compound I-80], the IC50 at PGD2 receptor [1] (setting [3]) worked out at 39 nM; on PGD2 receptor [2] (setting [4]) it was 6.6 nM; on TXA2 receptor (setting [5]), 5.2 nM.
Turning to `CC1(C)[C@H]2C[C@H](C/C=C\CCCC(=O)O)[C@@H](NC(=O)c3csc4ccccc34)[C@@H]1C2` [Compound B-1, reference compound], the 50% inhibitory concentration (IC50) was 41 nM on PGD2 receptor [1] (Comparative Experiment 1, read-out: Experiment 3 Antaginistic activity against PGD2 receptor IC50); 8.2 nM at PGD2 receptor [2] (Comparative Experiment 1, read-out: Experiment 1 Antaginistic activity against PGD2 receptor IC50); 3800 nM on TXA2 receptor (Comparative Experiment 1, read-out: Experiment 2 Antaginistic activity against TXA2 receptor IC50).
With `O=C(O)CCCC=CCC1C2CCC(C2)C1NC(=O)c1ccc(CSc2cccs2)s1` (stereo not drawn) [Compound I-104], the figures for the IC50 on PGD2 receptor [1] (setting [3]), on PGD2 receptor [2] (setting [4]) and at TXA2 receptor (setting [5]) were 1.6 nM, 0.1 nM and 39 nM, respectively.
On the same counts, the results for `O=C(O)CCCC=CCC1C2CCC(C2)C1NC(=O)c1ccc(S(=O)(=O)c2cccs2)s1` (stereo not drawn) [Compound I-47] are 7 nM, 4.1 nM and 6.2 nM.
On the same counts, the results for `O=C(O)CCCC=CCC1C2CCC(C2)C1NC(=O)c1ccc(Sc2cccs2)s1` (stereo not drawn) [Compound I-59] are 4.6 nM, 0.41 nM and 16 nM.
The matching figures for `O=C(O)CCCC=CCC1C2CCC(C2)C1NC(=O)c1ccn(S(=O)(=O)c2cccs2)c1` (stereo not drawn) [Compound I-94]: 10 nM, 1 nM and 83 nM.
Consider `O=C(O)CCCC=CCC1C2CCC(C2)C1NC(=O)c1ccc(Cc2cc3ccccc3o2)s1` (stereo not drawn) [Compound I-136], for which the IC50 on PGD2 receptor [1] (setting [3]) worked out at 15 nM; at PGD2 receptor [2] (setting [4]), 23 nM; at TXA2 receptor (setting [5]), 16 nM.
The matching figures for `O=C(O)CCCC=CCC1C2CCC(C2)C1NC(=O)c1csc2c(Cc3ccsc3)cccc12` (stereo not drawn) [Compound I-169]: 26 nM, 0.61 nM and 32 nM.
On the same counts, the results for `Cc1ccc(Cc2ccc(C(=O)NC3C4CCC(C4)C3CC=CCCCC(=O)O)s2)s1` (stereo not drawn) [Compound I-129] are 22 nM, 11 nM and 52 nM.
The matching figures for `O=C(O)CCCC=CCC1C2CCC(C2)C1NC(=O)c1csc2c(Cc3cccs3)cccc12` (stereo not drawn) [Compound I-168]: 29 nM, 0.46 nM and 34 nM.
For `Cc1cc(S(=O)(=O)c2ccc(C(=O)NC3C(CC=CCCCC(=O)O)CC4CC3C4(C)C)s2)cs1` (stereo not drawn) [II-30], the IC50 on PGD2 receptor [1] (setting [3]) worked out at 45 nM; at PGD2 receptor [2] (setting [4]), 72 nM; on TXA2 receptor (setting [5]) it was 4 nM.
On the same counts, the results for `O=C(O)CCCC=CCC1C2CCC(C2)C1NC(=O)c1ccc(Cc2cccs2)s1` (stereo not drawn) [Compound I-93] are 8.4 nM, 7 nM and 72 nM.
As for `CC1(C)C2CC(CC=CCCCC(=O)O)C(NC(=O)c3ccc(Sc4cccs4)s3)C1C2` (stereo not drawn) [II-21], the values for the IC50 at PGD2 receptor [1] (setting [3]), at PGD2 receptor [2] (setting [4]) and at TXA2 receptor (setting [5]) were 24 nM, 0.1 nM and 14 nM, respectively.
The matching figures for `O=C(O)CCCC=CCC1C2CCC(C2)C1NC(=O)c1ccc(SCc2cccs2)s1` (stereo not drawn) [Compound I-106]: 9.3 nM, 13 nM and 13 nM.
The matching figures for `Cc1ccc(S(=O)(=O)c2ccc(C(=O)NC3C4CCC(C4)C3CC=CCCCC(=O)O)s2)s1` (stereo not drawn) [Compound I-82]: 53 nM, 32 nM and 1.8 nM.
The matching figures for `O=C(O)CCCC=CCC1C2CCC(C2)C1NC(=O)c1ccc(Cc2ccsc2)s1` (stereo not drawn) [Compound I-88]: 4.7 nM, 7.6 nM and 78 nM.
`Cc1cccn1S(=O)(=O)c1ccc(C(=O)NC2C(CC=CCCCC(=O)O)CC3CC2C3(C)C)s1` (stereo not drawn) [II-34]: the IC50 at PGD2 receptor [1] (setting [3]) was 3.9 nM; on PGD2 receptor [2] (setting [4]), 1.5 nM; on TXA2 receptor (setting [5]) it was 4.4 nM.
On the same counts, the results for `CC1(C)C2CC(CC=CCCCC(=O)O)C(NC(=O)c3ccc(S(=O)(=O)n4cccc4)s3)C1C2` (stereo not drawn) [II-15] are 11 nM, 2 nM and 12 nM.
As for `CC1(C)C2CC(CC=CCCCC(=O)O)C(NC(=O)c3ccc(S(=O)(=O)c4cccs4)s3)C1C2` (stereo not drawn) [II-18], the IC50 at PGD2 receptor [1] (setting [3]) came out at 4 nM; at PGD2 receptor [2] (setting [4]), 0.96 nM; on TXA2 receptor (setting [5]) it was 3.6 nM.
With `O=C(O)CCCC=CCC1C2CCC(C2)C1NC(=O)c1ccc(Cc2csc3ccccc23)s1` (stereo not drawn) [Compound I-182], the IC50 stood at 11 nM on PGD2 receptor [1] (setting [3]), 61 nM on PGD2 receptor [2] (setting [4]) and 28 nM on TXA2 receptor (setting [5]).
